Assays:
domestic laying hens = test: Egg production of domestic laying hens after oral administration in capsules; format: in vivo, chicken; conditions: for Number of eggs (average number of eggs per day laid by 4 chickens): oral capsules, control 3.5
Experimental: In this example, domestic laying hens have been divided into four groups: • the 4 chickens of the control group have not ingested 2-methyloxolane. • the 12 chickens of the N×1 group have ingested pure liquid 2-methyloxolane in capsules. The ingested dose of pure liquid 2-methyloxoane was 3.18 mg/kg of the chicken/day, i.e. 40 mg/kg in the daily ration, • the 12 chickens of the N×5 group have ingested pure liquid 2-methyloxolane in capsules. The ingested dose of pure liquid 2-methyloxoane was 15.88 mg/kg of the chicken/day, i.e. 200 mg/kg in the daily ration, and • the 12 chickens of the N×10 group have ingested pure liquid 2-methyloxolane in capsules. The ingested dose of pure liquid 2-methyloxoane was 31.77 mg/kg of the chicken/day, i.e. 400 mg/kg in the daily ration (the group N×10). The egg production of each group has been monitored in order to statistically validate the significance of the effect of an oral administration of 2-methyloxolane on egg production. The statistical processing is as follows: A one-factor analysis of variance (ANOVA) has been carried out using the XLSTAT 2020.2.1 software on MS EXCEL 16.0.15225. […] In case of a significant difference between the averages, a Student's t-test with a level of significance of 5% will be applied for the comparison in pairs using the same software. In total, 1,115 eggs have been counted throughout the observations. Table 1 hereinbelow presents the average of the number of eggs per day laid by 4 chickens as a function of their basking group.

human = conditions: EFSA Opinion of Mar. 15, 2022; cited from earlier work
rats = conditions: 3-month ingestion; cited from earlier work
average human of 50 kg = conditions: ICHQ3C R8, solvent to be limited; cited from earlier work

Compound	Effect of oral administration on number of laid eggs per chicken (domestic laying hens; 40 to 400 mg/kg in daily ration, no apparent dose effect, ANOVA and Student's t-test, 5% level)	Number of eggs (average number of eggs per day laid by 4 chickens) (domestic laying hens; N × 1 group: 3.18 mg/kg of the chicken/day, i.e. 40 mg/kg in the daily ration)	Number of eggs (average number of eggs per day laid by 4 chickens) (domestic laying hens; N × 5 group: 15.88 mg/kg of the chicken/day, i.e. 200 mg/kg in the daily ration)	Number of eggs (average number of eggs per day laid by 4 chickens) (domestic laying hens; N × 10 group: 31.77 mg/kg of the chicken/day, i.e. 400 mg/kg in the daily ration)	More eggs laid per week than animal whose feed is not supplemented (domestic laying hens; feed supplemented by the dietary supplement comprising 2-methyloxolane)	Human exposure limit recommended by EFSA (human)	Dose with no undesirable effect observed (rats) [mg/kg body weight per day]	Acceptable Daily Dose (average human of 50 kg) [mg]
CC1CCCO1 (centres unmarked) [2-methyloxolane]	significantly increases	3.9	3.9	3.9	up to 14%	1 mg/kg human body weight per day	250	–
CCCCCC [hexane]	–	–	–	–	–	–	–	2.9

Reference: US20260157993A1, “USE OF 2-METHYLOXOLANE FOR FEEDING OVIPAROUS ANIMALS” (ECOXTRACT, priority 2022, published 2026)
